target: human neprilysin (EC 3.4.24.11; NEP) (Homo sapiens (Human), UniProt P08473); test: In vitro enzyme inhibition assay at human NEP (fluorogenic peptide substrate); type: biochemical; conditions: pKi values at human NEP, recombinant human NEP
Procedure, shortened: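 pKi derived from apparent Ki fitted as v=v0/[1+(I/K′)] to Ex320/Em405 fluorescence. Compounds (pM to 10 μM) sat with recombinant human enzyme 30 min at 37 °C before 10 μM fluorogenic Mca peptide was added in HEPES pH 7.5 buffer with 10 μM ZnSO4; 20 min reaction, acetic acid quench.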

human neprilysin (EC 3.4.24.11; NEP), sequence (P08473 52-750): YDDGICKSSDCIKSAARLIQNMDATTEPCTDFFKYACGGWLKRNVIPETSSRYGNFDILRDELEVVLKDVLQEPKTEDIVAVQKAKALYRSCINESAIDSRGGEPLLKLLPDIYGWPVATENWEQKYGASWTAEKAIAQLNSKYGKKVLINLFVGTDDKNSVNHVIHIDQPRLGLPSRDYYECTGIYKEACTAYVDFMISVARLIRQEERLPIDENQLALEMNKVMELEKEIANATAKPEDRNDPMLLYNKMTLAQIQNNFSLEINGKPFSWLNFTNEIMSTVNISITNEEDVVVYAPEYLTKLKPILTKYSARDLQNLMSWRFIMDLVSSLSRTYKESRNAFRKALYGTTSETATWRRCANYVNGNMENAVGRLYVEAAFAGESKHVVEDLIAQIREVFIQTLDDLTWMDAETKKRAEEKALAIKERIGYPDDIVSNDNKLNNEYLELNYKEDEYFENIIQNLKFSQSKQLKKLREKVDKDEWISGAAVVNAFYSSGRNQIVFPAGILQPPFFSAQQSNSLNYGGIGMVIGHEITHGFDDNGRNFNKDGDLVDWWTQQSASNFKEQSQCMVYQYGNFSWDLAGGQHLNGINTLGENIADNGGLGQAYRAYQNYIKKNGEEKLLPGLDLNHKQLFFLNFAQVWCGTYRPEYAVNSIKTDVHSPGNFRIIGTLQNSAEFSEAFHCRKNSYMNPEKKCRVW

SMILES | pKi | Ki [nM]
COc1ccccc1-c1cc(C(=O)N[C@H](Cc2ccc(-c3ccccc3)cc2)C[C@@H](O)C(=O)O)no1 [Example 12-15, (2R,4R)-5-Biphenyl-4-yl-2-hydroxy-4-{[5-(2-methoxy-phenyl)-isoxazole-3-carbonyl]-amino}-pentanoic acid] | – | 1.26 to 10
O=C(N[C@H](Cc1ccc(-c2ccccc2)cc1)C[C@@H](O)C(=O)O)c1nc(-c2ccccc2Cl)no1 [Example 12-26, (2R,4R)-5-Biphenyl-4-yl-4-{[3-(2-chlorophenyl)-[1,2,4]oxadiazole-5-carbonyl]-amino}-2-hydroxy-pentanoic acid] | – | 1.26 to 10
O=C(N[C@H](Cc1ccc(-c2ccccc2)cc1)CC(O)C(=O)O)c1cc(C(=O)O)n(Cc2ccc(Cl)cc2)n1 (stereo partly drawn) [Example 15-15, 5-((R)-1-Biphenyl-4-ylmethyl-3-carboxy-3-hydroxy-propylcarbamoyl)-2-(4-chlorobenzyl)-2H-pyrazole-3-carboxylic acid] | – | 1.26 to 10
O=C(N[C@H](Cc1ccc(-c2ccccc2)cc1)C[C@@H](O)C(=O)O)c1cc(-c2cnccn2)n[nH]1 [Example 15-106, (2R,4R)-5-Biphenyl-4-yl-2-hydroxy-4-[(5-pyrazin-2-yl-2H-pyrazole-3-carbonyl)-amino]pentanoic acid] | – | 1.26 to 10
Nc1cc(C(=O)N[C@H](Cc2ccc(-c3ccccc3)cc2)CC(O)C(=O)O)n[nH]1 (stereo partly drawn) [Example 15-101, (R)-4-[(5-Amino-2H-pyrazole-3-carbonyl)-amino]-5-biphenyl-4-yl-2-hydroxy-pentanoic acid] | – | 12.6 to 100
Cc1n[nH]c(C(=O)N[C@H](Cc2ccc(-c3ccccc3)cc2)CC(O)C(=O)O)n1 (stereo partly drawn) [Example 10-11, (R)-5-Biphenyl-4-yl-2-hydroxy-4-[(5-methyl-2H-[1,2,4]triazole-3-carbonyl)amino]pentanoic acid] | – | 12.6 to 100
O=C(NC1CC1)c1cc(C(=O)N[C@H](Cc2ccc(-c3ccccc3)cc2)C[C@H](O)C(=O)O)[nH]n1 [Example 15-55, (2S,4R)-5-Biphenyl-4-yl-4-[(5-cyclopropylcarbamoyl-2H-pyrazole-3-carbonyl)-amino]-2-hydroxypentanoic acid] | – | 12.6 to 100
COc1ccccc1C(=O)Nc1nc(C(=O)N[C@H](Cc2ccc(-c3ccccc3)cc2)C[C@@H](O)C(=O)O)cs1 [Example 12-25, (2R,4R)-5-Biphenyl-4-yl-2-hydroxy-4-{[2-(2-methoxy-benzoylamino)-thiazole-4-carbonyl]-amino}-pentanoic acid] | – | 12.6 to 100
O=C(N[C@H](Cc1ccc(-c2ccccc2)cc1)C[C@@H](O)C(=O)O)c1cc2n(n1)CCCOc1ccccc1-2 [Example 16-3, (2R,4R)-5-Biphenyl-4-yl-2-hydroxy-4-[(10-oxa-5,6-diaza-tricyclo[9.4.0.02,6]pentadeca-1(15),2,4,11,13-pentaene-4-carbonyl)-amino]-pentanoic acid] | – | 1.26 to 10
O=C(N[C@H](Cc1ccc(-c2ccccc2)cc1)C[C@@H](O)C(=O)O)c1nc(Cl)n[nH]1 [Example 10-12, (2R,4R)-5-Biphenyl-4-yl-4-[(5-chloro-2H-[1,2,4]triazole-3-carbonyl)amino]-2-hydroxypentanoic acid] | – | 1.26 to 10
O=C(N[C@H](Cc1ccc(-c2ccccc2)cc1)C[C@@H](O)C(=O)O)c1cc(-c2cc(Cl)ccc2Cl)no1 [Example 12-11, (2R,4R)-5-Biphenyl-4-yl-4-{[3-(2,5-dichlorophenyl)-isoxazole-5-carbonyl]-amino}-2-hydroxy-pentanoic acid] | ≥9.0 | –
O=C(O)CNC(=O)c1cc(C(=O)N[C@H](Cc2ccc(-c3ccccc3)cc2)CC(O)C(=O)O)[nH]n1 (stereo partly drawn) [Example 15-56, (R)-5-Biphenyl-4-yl-4-{[5-(carboxymethyl-carbamoyl)-2H-pyrazole-3-carbonyl]-amino}-2-hydroxy-pentanoic acid] | – | 1.26 to 10
O=C(N[C@H](Cc1ccc(-c2ccccc2)cc1)C[C@@H](O)C(=O)O)c1noc(=O)[nH]1 [Example 12-27, (2R,4R)-5-Biphenyl-4-yl-2-hydroxy-4-[(5-oxo-4,5-dihydro-[1,2,4]oxadiazole-3-carbonyl)-amino]-pentanoic acid] | ≥9.0 | –
O=C(N[C@H](Cc1ccc(-c2ccccc2)cc1)C[C@@H](O)C(=O)O)c1cc(-c2cccc(Cl)c2)[nH]n1 [Example 15-25, (2R,4R)-5-Biphenyl-4-yl-4-{[5-(3-chlorophenyl)-1H-pyrazole-3-carbonyl]-amino}-2-hydroxy-pentanoic acid] | ≥9.0 | –
O=C(N[C@H](Cc1ccc(-c2ccccc2)cc1)CC(O)C(=O)O)c1cc[nH]n1 (stereo partly drawn) [Example 15-1, (R)-5-Biphenyl-4-yl-2-hydroxy-4-[(1H-pyrazole-3-carbonyl)amino]pentanoic acid] | – | 12.6 to 100
COCc1cc(C(=O)N[C@H](Cc2ccc(-c3ccccc3)cc2)C[C@@H](O)C(=O)O)n[nH]1 [Example 15-4, (2R,4R)-5-Biphenyl-4-yl-2-hydroxy-4-[(5-methoxymethyl-1H-pyrazole-3-carbonyl)-amino]-pentanoic acid] | – | 1.26 to 10
CN(C)CCNC(=O)c1cc(C(=O)N[C@H](Cc2ccc(-c3ccccc3)cc2)CC(O)C(=O)O)[nH]n1 (stereo partly drawn) [Example 15-71, (R)-5-Biphenyl-4-yl-4-{[5-(2-dimethylamino-ethylcarbamoyl)-2H-pyrazole-3-carbonyl]-amino}-2-hydroxy-pentanoic acid] | – | 1.26 to 10
CC(=O)Nc1ncc(C(=O)N[C@H](Cc2ccc(-c3ccccc3)cc2)C[C@@H](O)C(=O)O)s1 [Example 12-24, (2R,4R)-4-[(2-Acetylamino-thiazole-5-carbonyl)-amino]-5-biphenyl-4-yl-2-hydroxy-pentanoic acid] | – | 12.6 to 100
COc1cccc(-c2cc(C(=O)N[C@H](Cc3ccc(-c4ccccc4)cc3)C[C@@H](O)C(=O)O)no2)c1 [Example 12-18, (2R,4R)-5-Biphenyl-4-yl-2-hydroxy-4-{[5-(3-methoxy-phenyl)-isoxazole-3-carbonyl]-amino}-pentanoic acid] | – | 1.26 to 10
Cn1cc(-c2cc(C(=O)N[C@H](Cc3ccc(-c4ccccc4)cc3)C[C@@H](O)C(=O)O)on2)cn1 [Example 12-10, (2R,4R)-5-Biphenyl-4-yl-2-hydroxy-4-{[3-(1-methyl-1H-pyrazol-4-yl)-isoxazole-5-carbonyl]-amino}-pentanoic acid] | – | 1.26 to 10
O=C(O)c1ccc(Cn2nnc3cc(C(=O)N[C@H](Cc4ccc(-c5ccccc5)cc4)C[C@H](O)C(=O)O)ccc32)cc1 [Example 11-2, 4-[5-((1R,3S)-1-Biphenyl-4-ylmethyl-3-carboxy-3-hydroxypropylcarbamoyl)-benzotriazol-1-ylmethyl]-benzoic acid] | – | 12.6 to 100

More lines, now with the values ahead:

pKi | Ki [nM] | SMILES
≥9.0 | – | O=C(N[C@H](Cc1ccc(-c2ccccc2)cc1Cl)C[C@@H](O)C(=O)O)c1nn(-c2cccc(Cl)c2)c(=O)[nH]1 [Example 20-3, (2R,4R)-5-(3-Chloro-biphenyl-4-yl)-4-{[1-(3-chloro-phenyl)-5-oxo-4,5-dihydro-1H-[1,2,4]triazole-3-carbonyl]-amino}-2-hydroxy-pentanoic acid]
≥9.0 | – | COCCN(C)C(=O)c1cc(C(=O)N[C@H](Cc2ccc(-c3ccccc3)cc2Cl)C[C@@H](O)C(=O)O)[nH]n1 [Example 20-6, (2R,4R)-5-(3-Chloro-biphenyl-4-yl)-2-hydroxy-4-({5-[(2-methoxy-ethyl)-methyl-carbamoyl]-2H-pyrazole-3-carbonyl}-amino)-pentanoic acid]
≥9.0 | – | O=C(N[C@H](Cc1ccc(-c2cccc(Cl)c2)cc1)C[C@@H](O)C(=O)O)c1cc(-c2ccccc2O)n[nH]1 [Example 18-17, (2R,4R)-5-(3′-Chlorobiphenyl-4-yl)-2-hydroxy-4-{[5-(2-hydroxy-phenyl)-2H-pyrazole-3-carbonyl]-amino}-pentanoic acid]
≥9.0 | – | CN(C)C(=O)c1cc(C(=O)N[C@H](Cc2ccc(-c3ccccc3)cc2Cl)C[C@@H](O)C(=O)O)[nH]n1 [Example 20-5, (2R,4R)-5-(3-Chloro-biphenyl-4-yl)-4-[(5-dimethylcarbamoyl-2H-pyrazole-3-carbonyl)-amino]-2-hydroxy-pentanoic acid]
≥9.0 | – | O=C(N[C@@H](Cc1ccc(-c2cccc(Cl)c2)cc1)C[C@@H](O)C(=O)O)c1cc(O)n(-c2cccc(Cl)c2)n1 [Example 18-39, (2R,4S)-5-(3′-Chloro-biphenyl-4-yl)-4-{[1-(3-chloro-phenyl)-5-hydroxy-1H-pyrazole-3-carbonyl]-amino}-2-hydroxy-pentanoic acid]
≥9.0 | – | O=C(N[C@H](Cc1ccc(-c2ccccc2)cc1Cl)C[C@@H](O)C(=O)O)c1c[nH]nn1 [Example 20-1, (2R,4R)-5-(3-Chlorobiphenyl-4-yl)-2-hydroxy-4-[(1H-[1,2,3]triazole-4-carbonyl)-amino]-pentanoic acid]
≥9.0 | – | Cn1nc(C(=O)N[C@H](Cc2ccc(-c3cccc(Cl)c3)cc2)C[C@@H](O)C(=O)O)cc1O [Example 18-35, (2R,4R)-5-(3′-Chloro-biphenyl-4-yl)-2-hydroxy-4-[(5-hydroxy-1-methyl-1H-pyrazole-3-carbonyl)-amino]-pentanoic acid]
– | 1.26 to 10 | O=C(N[C@H](Cc1ccc(-c2cccc(Cl)c2)cc1)C[C@@H](O)C(=O)O)c1ccc(=O)n(Cc2ccccc2)n1 [Example 18-48, (2R,4R)-4-[(1-Benzyl-6-oxo-1,6-dihydro-pyridazine-3-carbonyl)-amino]-5-(3′-chlorobiphenyl-4-yl)-2-hydroxy-pentanoic acid]
≥9.0 | – | O=C(N[C@H](Cc1ccc(-c2cccc(Cl)c2)cc1)C[C@@H](O)C(=O)O)c1cc(NC(=O)c2ccccc2Cl)n[nH]1 [Example 18-27, (2R,4R)-4-{[5-(2-Chlorobenzoylamino)-2H-pyrazole-3-carbonyl]-amino}-5-(3′-chlorobiphenyl-4-yl)-2-hydroxy-pentanoic acid]
≥9.0 | – | O=C(N[C@H](Cc1ccc(-c2cccc(Cl)c2)cc1)C[C@@H](O)C(=O)O)c1cc(-c2ccccc2O)on1 [Example 18-16, (2R,4R)-5-(3′-Chlorobiphenyl-4-yl)-2-hydroxy-4-{[5-(2-hydroxyphenyl)-isoxazole-3-carbonyl]-amino}-pentanoic acid]

Source: patent publication US10759813B2, “Neprilysin inhibitors” (THERAVANCE BIOPHARMA R&D IP, LLC, priority 2010, dated 2020)
